According to patent US4339461A, “N-Substituted 3-nitro-benzylamines” (Chevron Research Company, priority 1980, dated 1982):

Tests used:
[1] = test system: Tomato Early Blight organism, Alternaria solani; test: Fungicidal efficacy, control of Tomato Early Blight on sprayed tomato seedlings; type: in vivo; details: for Fungicidal Efficacy - % Control, TEB (Tomato Early Blight): 250 ppm spray, about 12 days; for fungicidal activity on Tomato Early Blight (in words): Table I test
[2] = test system: Powdery mildew pathogen, Erysiphe polygoni; test: Fungicidal efficacy, control of Bean Powdery Mildew on sprayed bean seedlings; type: in vivo; details: for Fungicidal Efficacy - % Control, BPM (Bean Powdery Mildew): 250 ppm spray, inoculated one day later, about 10 days; for fungicidal activity on Bean Powdery Mildew (in words): Table I test
Text: The powdery mildew test was made using bean seedlings (variety Bountiful) with well-developed primary leaves. The pathogen was Erysiphe polygoni. […] The treated plants were inoculated one day after spray application of the test compound with the pathogen. […] The rate of infection on the leaves was made after about 10 days. The percent disease control provided by a given test compound was based on the disease reduction relative to untreated check plants. The results are reported in Table I. The test was repeated on Compound No. 1.

malaria = details: disclosed by Burkhalter et al, 1948; cited from earlier work
fungi = test: Fungicidal activity overall (tests of Examples 1 and 2, Table I); type: in vivo
[3] = test system: Tomato Late Blight, Phytophthora infestans; type: in vivo; details: 250 ppm spray; inoculated one day later; about 12 days

Compound | Fungicidal Efficacy - % Control, TEB (Tomato Early Blight) [1] [%] | Fungicidal Efficacy - % Control, BPM (Bean Powdery Mildew) [2] [%] | antimalarial activity (in words) (malaria) | fungicidal activity (in words) (fungi) | also measured
CCN(CC)Cc1cccc([N+](=O)[O-])c1 [Compound 2, N,N-diethyl-3-nitro-benzylamine, reference compound] | 0 | 0 | antimalarial activity | – | fungicidal activity on Tomato Early Blight (in words) [1]: no fungicidal activity; fungicidal activity on Bean Powdery Mildew (in words) [2]: no fungicidal activity
CCCN(CCC)Cc1ccc([N+](=O)[O-])cc1 [Compound 3, N,N-dipropyl-4-nitro-benzylamine, reference compound] | 0 | 0 | antimalarial activity | no fungicidal activity | –
CCN(CC)Cc1ccc([N+](=O)[O-])cc1 [N,N-diethyl-4-nitro-benzylamine] | – | – | antimalarial activity | – | –
CS(=O)(=O)c1cccc(NCc2cccc([N+](=O)[O-])c2)c1 [Compound 7] | – | – | – | activity comparable to that of Compound 1 | Fungicidal Efficacy - % Control, TLB (Tomato Late Blight) [3]: 75%
CCCN(CCC)Cc1cccc([N+](=O)[O-])c1 [Compound 1, N,N-Dipropyl-3-Nitro-Benzylamine] | 60 | 86 | – | unexpected fungicidal activity | % control, Tomato Early Blight (repeat test) ([1]; 16 ppm): 90%; % control, Tomato Early Blight (repeat test) ([1]; 40 ppm): 90%; % control, Tomato Early Blight (repeat test) ([1]; 100 ppm): 93%; fungicidal activity on Tomato Early Blight (in words) [1]: unexpected fungicidal activity; % control, powdery mildew (repeat test) ([2]; 16 ppm): 0%; % control, powdery mildew (repeat test) ([2]; 40 ppm): 56%; % control, powdery mildew (repeat test) ([2]; 100 ppm): 83%; fungicidal activity on Bean Powdery Mildew (in words) [2]: unexpected fungicidal activity
CSc1cccc(N(Cc2cccc([N+](=O)[O-])c2)S(C)(=O)=O)c1 [Compound 6, N-(3-nitrobenzyl)-N-(3'-methylthiophenyl)-methane sulfonamide] | 81 | – | – | activity comparable to that of Compound 1 | Fungicidal Efficacy - % Control, TLB (Tomato Late Blight) [3]: 75%
CSc1cccc(NCc2cccc([N+](=O)[O-])c2)c1 [Compound 5, N-(3'-methylthiophenyl)-3-nitro-benzylamine] | – | 79 | – | activity comparable to that of Compound 1 | –
CCCN(CCC)Cc1cccc(F)c1 [Compound 4, reference compound] | 0 | 0 | – | no fungicidal activity | –
